{"source": "patent US4032625A", "about": "“Bone-seeking technetium-99m complex” (priority 1975, dated 1977)", "test": "Distribution of 99mTc-EHDP and 85Sr in rabbits, simultaneous study (Example 2, Table 1)", "assay_type": "in vivo, New Zealand albino rabbits", "description": "Adult New Zealand albino rabbits having an average weight of 3.8 kg were utilized. Strontium-85 was employed as a standard for comparison. […] Each dosage is contained in a volume of 1 ml.\nThe animals were sacrificed serially from 1 to 24 hours after injection and the activities in major organs were determined by counting multiple samples from each organ in a scintillation well counter (the technetium-99m counts were corrected for the Compton contributions from the strontium-85 activity in the technetium-99m energy window). Multiple samples were counted from the tibia, femur, spine and pelvic bones; the total activity in the skeleton was estimated by assuming the whole skeleton consisted of equal proportions by weight of tibia, spine, femur and pelvis and that the skeletal mass was 10% of the body weight. The red marrow was sampled from the femur and the total marrow was assumed to be 2.2% of the total body weight. Similarly, blood volume was assumed to be 7% and the skeletal muscle 43% of the body weight. The whole liver and both kidneys were weighed and multiple samples from each were counted to measure the total activity in each organ.\nIn another series of experiments carried out as described above, localization of technetium from its tin-phosphonate complex was determined in the callous of three week-old fractures of tibia in albino rabbits, again in comparison with strontium-85. Comparative radioassay of technetium-99m administered as the pertechnetate was measured in the callous of tibial fractures in rabbits at one and four hours after administration."}
{"molecule": "[85Sr]", "note": "[^85 Sr]", "values": [{"measurement": "% Dose in Whole Organ: Kidneys", "setting": "1 Hr", "result": 0.80, "unit": "% dose"}, {"measurement": "% Dose in Whole Organ: Liver", "setting": "1 Hr", "result": 1.57, "unit": "% dose"}, {"measurement": "% Dose in Whole Organ: One Femur", "setting": "1 Hr", "result": 1.04, "unit": "% dose"}, {"measurement": "% Dose: Urine", "setting": "1 Hr", "result": 6.96, "unit": "% dose"}, {"measurement": "% dose in whole organ: Blood (7% of body weight)", "setting": "1 Hr", "result": 11.9, "unit": "% dose"}, {"measurement": "% dose in whole organ: Bone(Avg) (10% of body weight)", "setting": "1 Hr", "result": 56.0, "unit": "% dose"}, {"measurement": "% dose in whole organ: Marrow (2.2% of body weight)", "setting": "1 Hr", "result": 0.91, "unit": "% dose"}, {"measurement": "% dose in whole organ: Muscle (43% of body weight)", "setting": "1 Hr", "result": 13.4, "unit": "% dose"}, {"measurement": "Bone/Muscle ratio", "setting": "1 Hr", "result": 19}, {"measurement": "Ratio Bone/Blood", "setting": "1 Hr", "result": 3.4}, {"measurement": "Ratio Bone/Marrow", "setting": "1 Hr", "result": 14}, {"measurement": "Ratio Callus/N. Femur", "setting": "1 Hr", "result": 7}, {"measurement": "Ratio Callus/N. Tibia", "setting": "1 Hr", "result": 9}, {"measurement": "Ratio Plus/Blood", "setting": "1 Hr", "result": 18}, {"measurement": "% Dose in Whole Organ: Kidneys", "setting": "2 Hrs", "result": 0.64, "unit": "% dose"}, {"measurement": "% Dose in Whole Organ: Liver", "setting": "2 Hrs", "result": 0.98, "unit": "% dose"}, {"measurement": "% Dose in Whole Organ: One Femur", "setting": "2 Hrs", "result": 1.21, "unit": "% dose"}, {"measurement": "% Dose: Urine", "setting": "2 Hrs", "result": 18.0, "unit": "% dose"}, {"measurement": "% dose in whole organ: Blood (7% of body weight)", "setting": "2 Hrs", "result": 7.08, "unit": "% dose"}, {"measurement": "% dose in whole organ: Bone(Avg) (10% of body weight)", "setting": "2 Hrs", "result": 49.4, "unit": "% dose"}, {"measurement": "% dose in whole organ: Marrow (2.2% of body weight)", "setting": "2 Hrs", "result": 0.76, "unit": "% dose"}, {"measurement": "% dose in whole organ: Muscle (43% of body weight)", "setting": "2 Hrs", "result": 8.8, "unit": "% dose"}, {"measurement": "Bone/Muscle ratio", "setting": "2 Hrs", "result": 32}, {"measurement": "Ratio Bone/Blood", "setting": "2 Hrs", "result": 6.4}, {"measurement": "Ratio Bone/Marrow", "setting": "2 Hrs", "result": 19}, {"measurement": "% Dose in Whole Organ: Kidneys", "setting": "4 Hrs", "result": 0.34, "unit": "% dose"}, {"measurement": "% Dose in Whole Organ: Liver", "setting": "4 Hrs", "result": 0.62, "unit": "% dose"}, {"measurement": "% Dose in Whole Organ: One Femur", "setting": "4 Hrs", "result": 1.25, "unit": "% dose"}, {"measurement": "% Dose: Urine", "setting": "4 Hrs", "result": 22.7, "unit": "% dose"}, {"measurement": "% dose in whole organ: Blood (7% of body weight)", "setting": "4 Hrs", "result": 3.85, "unit": "% dose"}, {"measurement": "% dose in whole organ: Bone(Avg) (10% of body weight)", "setting": "4 Hrs", "result": 68.1, "unit": "% dose"}, {"measurement": "% dose in whole organ: Marrow (2.2% of body weight)", "setting": "4 Hrs", "result": 0.50, "unit": "% dose"}, {"measurement": "% dose in whole organ: Muscle (43% of body weight)", "setting": "4 Hrs", "result": 6.46, "unit": "% dose"}, {"measurement": "Bone/Muscle ratio", "setting": "4 Hrs", "result": 47}, {"measurement": "Ratio Bone/Blood", "setting": "4 Hrs", "result": 13}, {"measurement": "Ratio Bone/Marrow", "setting": "4 Hrs", "result": 32}, {"measurement": "Ratio Callus/N. Femur", "setting": "4 Hrs", "result": 7}, {"measurement": "Ratio Callus/N. Tibia", "setting": "4 Hrs", "result": 8}, {"measurement": "Ratio Plus/Blood", "setting": "4 Hrs", "result": 81}, {"measurement": "% Dose in Whole Organ: Kidneys", "setting": "24 Hrs", "result": 0.03, "unit": "% dose"}, {"measurement": "% Dose in Whole Organ: Liver", "setting": "24 Hrs", "result": 0.04, "unit": "% dose"}, {"measurement": "% Dose in Whole Organ: One Femur", "setting": "24 Hrs", "result": 0.93, "unit": "% dose"}, {"measurement": "% dose in whole organ: Blood (7% of body weight)", "setting": "24 Hrs", "result": 0.29, "unit": "% dose"}, {"measurement": "% dose in whole organ: Bone(Avg) (10% of body weight)", "setting": "24 Hrs", "result": 51.9, "unit": "% dose"}, {"measurement": "% dose in whole organ: Marrow (2.2% of body weight)", "setting": "24 Hrs", "result": 0.10, "unit": "% dose"}, {"measurement": "% dose in whole organ: Muscle (43% of body weight)", "setting": "24 Hrs", "result": 1.00, "unit": "% dose"}, {"measurement": "Bone/Muscle ratio", "setting": "24 Hrs", "result": 227}, {"measurement": "Ratio Bone/Blood", "setting": "24 Hrs", "result": 134}, {"measurement": "Ratio Bone/Marrow", "setting": "24 Hrs", "result": 119}]}
